From ChEMBL document CHEMBL3853341, “Nuclear magnetic resonance studies reveal stabilization of parallel G-quadruplex DNA [d(T2G4T)]4 upon binding to protoberberine alkaloid coralyne” (Bioorg Med Chem Lett, 2016)
Activity calls are given as the source filed them. The calls are words filed in the database; no cut-off is given here.

Tests used:
[1] = Binding affinity to [d(T2AG3T)]4 G-quadruplex DNA (unknown origin) containing human telomeric repeat assessed as increase in melting temperature by NMR spectroscopic analysis
[2] = Binding affinity to deoxy(T2G4T)]4 G-quadruplex DNA (unknown origin) assessed as formation of negative induced CD band at 25 uM by […]
[3] = Binding affinity to deoxy(T2G4T)]4 G-quadruplex DNA (unknown origin) assessed as G3NH/G6NH signal by measuring melting temperature by 1H NMR spectroscopy
[4] = Binding affinity to [d(T2G4T)]4 G-quadruplex DNA (unknown origin) assessed as change in intensity of positive band at 264 nanometer by circular dichroism method
[5] = Binding affinity to [d(T2G4T)]4 G-quadruplex DNA (unknown origin) assessed as change in intensity of negative band at 242 nanometer by circular dichroism method
[6] = Binding affinity to [d(T2G4T)]4 G-quadruplex DNA (unknown origin) assessed as formation of 3'-flanking guanine at ligand:DNA molar ratio of 2 by 2D 1H-1H NOESY NMR spectroscopy
[7] = Binding affinity to [d(T2G4T)]4 G-quadruplex DNA (unknown origin) assessed as diffusion coefficient of H1/H16 proton signal at ligand:DNA molar ratio of 2 by NMR DOSY method (reference value: 5.08 10^-10m2/sec)
[8] = Binding affinity to [d(T2G4T)]4 G-quadruplex DNA (unknown origin) assessed as diffusion coefficient of G3H8 proton signal at ligand:DNA molar ratio of 2 by NMR DOSY method
[9] = Binding affinity to [d(T2G4T)]4 G-quadruplex DNA (unknown origin) assessed as broadening of G3NH signal by measuring upfield shift at ligand:DNA molar ratio of 2 by 1D 1H NMR method
[10] = Binding affinity to [d(T2G4T)]4 G-quadruplex DNA (unknown origin) assessed as broadening of G6NH signal by measuring upfield shift at ligand:DNA molar ratio of 2 by 1D 1H NMR method
[11] = Binding affinity to [d(T2G4T)]4 G-quadruplex DNA (unknown origin) assessed as broadening of G4NH signal by measuring upfield shift at ligand:DNA molar ratio of 2 by 1D 1H NMR method
[12] = Binding affinity to [d(T2G4T)]4 G-quadruplex DNA (unknown origin) assessed as broadening of G5NH signal by measuring upfield shift at ligand:DNA molar ratio of 2 by 1D 1H NMR method
[13] = Binding affinity to [d(T2G4T)]4 G-quadruplex DNA (unknown origin) assessed as broadening of T2CH3 signal by measuring downfield shift at ligand:DNA molar ratio of 2 by 1D 1H NMR method
[14] = Binding affinity to [d(T2G4T)]4 G-quadruplex DNA (unknown origin) assessed as broadening of T7CH3 signal by measuring downfield shift at ligand:DNA molar ratio of 2 by 1D 1H NMR method
[15] = Binding affinity to [d(T2G4T)]4 G-quadruplex DNA (unknown origin) assessed as broadening of T7H6 signal by measuring downfield shift at ligand:DNA molar ratio of 2 by 1D 1H NMR method
[16] = Binding affinity to [d(T2G4T)]4 G-quadruplex DNA (unknown origin) assessed as upfield shift in compound 1OCH3 signal at ligand:DNA molar ratio of 2 by 1D 1H NMR method
[17] = Binding affinity to [d(T2G4T)]4 G-quadruplex DNA (unknown origin) assessed as upfield shift in compound 5OCH3 signal at ligand:DNA molar ratio of 2 by 1D 1H NMR method
[18] = Binding affinity to [d(T2G4T)]4 G-quadruplex DNA (unknown origin) assessed as upfield shift in compound 15OCH3 signal at ligand:DNA molar ratio of 2 by 1D 1H NMR method
[19] = Binding affinity to [d(T2G4T)]4 G-quadruplex DNA (unknown origin) assessed as upfield shift in compound 16OCH3 signal at ligand:DNA molar ratio of 2 by 1D 1H NMR method
[20] = Binding affinity to [d(T2G4T)]4 G-quadruplex DNA (unknown origin) assessed as downfield shift in T2pG3 signal at ligand:DNA molar ratio of 0.25:1 to 2:1 by 1D 31P NMR method
[21] = Binding affinity to [d(T2G4T)]4 G-quadruplex DNA (unknown origin) assessed as downfield shift in G6pT7 signal at ligand:DNA molar ratio of 0.25:1 to 2:1 by 1D 31P NMR method
[22] = Binding affinity to [d(T2G4T)]4 G-quadruplex DNA (unknown origin) assessed as upfield shift in G4pG5 signal at ligand:DNA molar ratio of 0.25:1 to 2:1 by 1D 31P NMR method
[23] = Binding affinity to [d(T2G4T)]4 G-quadruplex DNA (unknown origin) assessed as upfield shift in G5pG6 signal at ligand:DNA molar ratio of 0.25:1 to 2:1 by 1D 31P NMR method

Compound: O=c1c(O)c(-c2ccc(O)c(O)c2)oc2cc(O)cc(O)c12
- ΔTm [1]: 20 °C

Compound: COc1cc2cc3c4cc(OC)c(OC)cc4cc[n+]3c(C)c2cc1OC
- Activity [2]: Active
- ΔTm [3]: > 20 °C
- Activity [4]: Active
- Activity [5]: Active
- Activity [6]: Active
- D [7]: 3.31 ×10⁻¹⁰ m2/s
- D [8]: 3.26 ×10⁻¹⁰ m2/s
- Activity [9]: 0.54 ppm
- Activity [10]: 0.8 ppm
- Activity [11]: 0.37 ppm
- Activity [12]: 0.38 ppm
- Activity [13]: 0.17 ppm
- Activity [14]: 0.22 ppm
- Activity [15]: 0.33 ppm
- Activity [16]: 0.49 ppm
- Activity [17]: 0.72 ppm
- Activity [18]: 0.46 ppm
- Activity [19]: 0.61 ppm
- Activity [20]: 0.28 ppm
- Activity [21]: 0.27 ppm
- Activity [22]: 0.12 ppm
- Activity [23]: 0.12 ppm

Compound: Cc1cc2c3c([n+](C)c4ccc(F)cc4c3c1)-c1cc(F)ccc1N2C
- ΔTm [1]: 20 °C
